According to patent publication US11872312B2, “Neuroprotective liposome compositions and methods for treatment of stroke” (The Board of Regents of The University of Texas System, priority 2012, dated 2024):

Legend:
[1] = molecular target: tPA activity on porcine blood clot (Homo sapiens, UniProt P00750); experiment: Thrombolytic efficiency of tPA on porcine blood clot in presence of Xe-ELIP or free Xe; details: 30 minute incorporation with tPA
Protocol: Neuroprotective combination therapy may minimize the harmful effects of ischemic neuronal damage. […] The thrombolytic effect of tPA was inhibited after 30 minute incorporation with free Xe (Xe saturated solution).

[2] = tested on: murine embryonic stem cells; experiment: LDH release cytotoxicity test in stem cells; details: 3 mg ELIP/30 μl gas/ml for 4 hours; H2O2 10 mM for 2 hours

tPA activity on porcine blood clot, sequence (P00750 36-562): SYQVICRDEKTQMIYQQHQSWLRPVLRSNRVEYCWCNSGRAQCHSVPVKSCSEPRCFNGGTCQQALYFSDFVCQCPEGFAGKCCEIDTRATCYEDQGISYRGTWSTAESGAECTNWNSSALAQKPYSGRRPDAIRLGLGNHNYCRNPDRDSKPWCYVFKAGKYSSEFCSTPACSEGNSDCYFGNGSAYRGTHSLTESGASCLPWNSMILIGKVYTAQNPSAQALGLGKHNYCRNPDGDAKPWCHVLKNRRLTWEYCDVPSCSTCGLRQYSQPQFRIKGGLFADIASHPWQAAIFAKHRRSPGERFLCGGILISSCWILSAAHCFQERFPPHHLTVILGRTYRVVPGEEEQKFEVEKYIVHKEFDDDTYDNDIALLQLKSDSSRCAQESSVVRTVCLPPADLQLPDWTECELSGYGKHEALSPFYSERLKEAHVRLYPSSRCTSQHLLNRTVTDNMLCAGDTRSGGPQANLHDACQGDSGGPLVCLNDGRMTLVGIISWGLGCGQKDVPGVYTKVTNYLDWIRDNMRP

thrombolytic effect of tPA [1]	Structure (SMILES)	LDH release (cytotoxicity) [2]
inhibited	[Xe] [free Xe]	–
–	OO [H2O2, Hydrogen Peroxide]	significant LDH release
